Literature values as cited in patent US7799760B2 (Centro de Ingenieria Genetica y Biotecnologia, priority 2001, dated 2010).

Tested on: chronic neuropathic diabetic ulcers

Becaplermin
rate of recurrence (in the third month): about 30% | efficacy (multicenter, controlled, randomized clinical trial in the USA, neuropathic foot ulcers with normal arterial blood supply, topical gel): 50%
